Assay [1] concerns the target Tyrosine-protein kinase JAK1 (Homo sapiens, UniProt P23458). Nature of the assay: Inhibition of JAK1 (unknown origin) preincubated for 60 mins followed by reagent A addition and measured after 60 mins in presence of ATP by using microplate reader method.
The next assay deals with Histone deacetylase 1 (Homo sapiens, UniProt Q13547). Kind of assay: Inhibition of HDAC1 (unknown origin) incubated for 60 mins using microplate reader analysis.
Assay [2] deals with 4T1. Kind of assay: cells. The conditions noted are these: Mus musculus, 4T1, 72 h. It counts as functional, cell-based.
The test system of a further assay is MDA-MB-468. Kind of assay: cells. It counts as functional, cell-based. The conditions noted are these: Homo sapiens, MDA-MB-468, 72 h.
For assay [3], the target named is Non-receptor tyrosine-protein kinase TYK2 (Homo sapiens, UniProt P29597). Kind of assay: Inhibition of TYK2 (unknown origin) incubated for 40 min in presence of ATP by microplate reader analysis.
Non-receptor tyrosine-protein kinase TYK2, sequence (P29597 whole entry): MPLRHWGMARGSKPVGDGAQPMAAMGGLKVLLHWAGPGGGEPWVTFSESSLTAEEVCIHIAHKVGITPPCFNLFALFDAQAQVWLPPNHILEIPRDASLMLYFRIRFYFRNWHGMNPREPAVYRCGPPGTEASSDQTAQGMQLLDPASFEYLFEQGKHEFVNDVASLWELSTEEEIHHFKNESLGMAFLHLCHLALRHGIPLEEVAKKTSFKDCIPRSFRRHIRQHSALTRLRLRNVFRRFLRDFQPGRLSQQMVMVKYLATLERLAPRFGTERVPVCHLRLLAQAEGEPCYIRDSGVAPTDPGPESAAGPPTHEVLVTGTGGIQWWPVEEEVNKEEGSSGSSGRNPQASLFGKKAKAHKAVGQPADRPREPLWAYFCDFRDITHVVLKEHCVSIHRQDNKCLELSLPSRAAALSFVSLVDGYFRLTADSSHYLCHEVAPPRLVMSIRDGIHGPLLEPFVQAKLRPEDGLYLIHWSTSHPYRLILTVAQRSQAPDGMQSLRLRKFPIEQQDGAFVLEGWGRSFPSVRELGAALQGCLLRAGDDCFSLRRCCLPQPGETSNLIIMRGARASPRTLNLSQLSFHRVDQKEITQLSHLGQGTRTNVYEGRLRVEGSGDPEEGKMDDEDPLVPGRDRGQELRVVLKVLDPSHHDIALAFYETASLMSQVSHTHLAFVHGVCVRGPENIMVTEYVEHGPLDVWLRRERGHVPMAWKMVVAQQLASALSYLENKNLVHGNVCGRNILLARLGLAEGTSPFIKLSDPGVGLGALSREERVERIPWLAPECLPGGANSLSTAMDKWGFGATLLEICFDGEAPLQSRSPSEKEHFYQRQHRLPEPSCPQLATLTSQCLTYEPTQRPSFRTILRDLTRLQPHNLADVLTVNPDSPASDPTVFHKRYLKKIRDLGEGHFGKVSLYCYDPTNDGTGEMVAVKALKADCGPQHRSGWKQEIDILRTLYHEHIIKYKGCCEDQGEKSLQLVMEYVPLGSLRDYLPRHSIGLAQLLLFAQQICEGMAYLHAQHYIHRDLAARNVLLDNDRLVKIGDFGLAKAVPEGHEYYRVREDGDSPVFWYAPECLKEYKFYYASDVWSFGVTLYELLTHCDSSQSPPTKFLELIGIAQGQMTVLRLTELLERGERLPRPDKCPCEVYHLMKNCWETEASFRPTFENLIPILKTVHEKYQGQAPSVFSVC
The subject of a further assay is BT-549. Nature of the assay: cells. It is filed as functional, cell-based. The following applies: Homo sapiens, BT-549, 72 h.
In another assay the test system is CAL-51. Kind of assay: cells. It counts as functional, cell-based. The following applies: Homo sapiens, CAL-51, 72 h.
Assay [4] deals with MDA-MB-231. Kind of assay: cells. It counts as functional, cell-based. The conditions noted are these: Homo sapiens, MDA-MB-231, 72 h.
Assay [5] deals with T1, Tyrosine-protein kinase JAK2 (Homo sapiens, UniProt O60674). Nature of the assay: Inhibition of JAK2 (unknown origin) preincubated for 60 mins followed by reagent A addition and measured after 60 mins in presence of ATP by using microplate reader method.
T1 sequence (O60674 whole entry): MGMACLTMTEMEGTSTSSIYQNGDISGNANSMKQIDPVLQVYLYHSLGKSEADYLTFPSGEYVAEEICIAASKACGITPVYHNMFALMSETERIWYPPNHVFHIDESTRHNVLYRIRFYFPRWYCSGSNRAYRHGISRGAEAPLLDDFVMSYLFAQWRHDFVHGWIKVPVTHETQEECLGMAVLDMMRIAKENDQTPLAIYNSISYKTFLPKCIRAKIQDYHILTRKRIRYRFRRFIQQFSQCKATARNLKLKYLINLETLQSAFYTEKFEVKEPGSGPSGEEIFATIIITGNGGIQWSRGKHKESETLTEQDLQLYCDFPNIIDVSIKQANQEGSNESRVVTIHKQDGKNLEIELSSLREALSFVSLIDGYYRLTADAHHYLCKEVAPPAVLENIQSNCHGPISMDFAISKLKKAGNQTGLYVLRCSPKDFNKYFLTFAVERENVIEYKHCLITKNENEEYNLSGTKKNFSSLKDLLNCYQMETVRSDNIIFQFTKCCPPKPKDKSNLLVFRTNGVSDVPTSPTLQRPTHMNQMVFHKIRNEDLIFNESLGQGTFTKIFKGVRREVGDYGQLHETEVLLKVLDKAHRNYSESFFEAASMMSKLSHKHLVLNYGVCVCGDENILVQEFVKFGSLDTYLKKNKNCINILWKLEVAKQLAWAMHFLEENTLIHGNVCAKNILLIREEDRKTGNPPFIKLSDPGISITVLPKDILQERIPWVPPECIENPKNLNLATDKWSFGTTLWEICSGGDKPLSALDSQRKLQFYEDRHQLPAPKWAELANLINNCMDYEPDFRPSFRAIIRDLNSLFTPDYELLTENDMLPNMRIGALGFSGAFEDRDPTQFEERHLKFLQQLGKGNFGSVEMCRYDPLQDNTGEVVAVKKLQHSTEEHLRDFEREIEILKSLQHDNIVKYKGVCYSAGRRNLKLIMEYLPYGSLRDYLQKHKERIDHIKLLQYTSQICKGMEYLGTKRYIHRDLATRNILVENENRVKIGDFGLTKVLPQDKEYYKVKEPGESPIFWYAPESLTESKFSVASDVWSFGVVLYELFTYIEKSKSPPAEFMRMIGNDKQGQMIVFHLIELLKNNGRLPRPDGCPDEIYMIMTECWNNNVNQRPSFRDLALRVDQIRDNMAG
The target of assay [6] is T2, Tyrosine-protein kinase JAK3 (Homo sapiens, UniProt P52333).
T2 sequence (P52333 whole entry): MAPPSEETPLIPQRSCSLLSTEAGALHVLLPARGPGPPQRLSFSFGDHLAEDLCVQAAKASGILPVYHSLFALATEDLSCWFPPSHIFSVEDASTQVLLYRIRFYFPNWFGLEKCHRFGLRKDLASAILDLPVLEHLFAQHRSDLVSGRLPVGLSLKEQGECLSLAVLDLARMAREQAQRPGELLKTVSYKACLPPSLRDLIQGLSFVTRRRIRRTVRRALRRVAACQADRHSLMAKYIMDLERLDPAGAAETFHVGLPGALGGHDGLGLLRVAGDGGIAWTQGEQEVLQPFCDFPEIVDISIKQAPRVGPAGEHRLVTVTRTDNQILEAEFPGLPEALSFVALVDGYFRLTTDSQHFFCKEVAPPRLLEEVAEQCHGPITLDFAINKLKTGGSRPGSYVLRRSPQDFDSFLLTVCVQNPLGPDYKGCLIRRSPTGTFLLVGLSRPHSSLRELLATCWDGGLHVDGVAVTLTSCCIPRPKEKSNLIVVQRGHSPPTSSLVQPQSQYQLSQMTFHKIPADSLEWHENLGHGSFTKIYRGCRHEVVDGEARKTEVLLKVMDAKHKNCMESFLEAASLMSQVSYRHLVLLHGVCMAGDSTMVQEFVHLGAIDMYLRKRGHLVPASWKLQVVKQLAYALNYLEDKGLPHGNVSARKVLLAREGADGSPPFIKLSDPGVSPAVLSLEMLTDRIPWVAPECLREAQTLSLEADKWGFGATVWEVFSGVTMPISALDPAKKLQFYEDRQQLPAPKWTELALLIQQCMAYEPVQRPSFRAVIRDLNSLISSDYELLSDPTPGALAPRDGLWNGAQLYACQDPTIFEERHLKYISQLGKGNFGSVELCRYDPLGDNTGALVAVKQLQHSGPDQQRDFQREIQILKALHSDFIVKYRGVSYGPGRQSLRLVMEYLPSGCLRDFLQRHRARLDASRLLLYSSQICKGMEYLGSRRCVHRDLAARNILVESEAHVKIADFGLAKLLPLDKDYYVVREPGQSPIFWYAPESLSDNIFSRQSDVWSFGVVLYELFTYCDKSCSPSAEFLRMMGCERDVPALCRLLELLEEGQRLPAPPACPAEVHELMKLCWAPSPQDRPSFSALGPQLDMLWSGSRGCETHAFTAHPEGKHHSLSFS
Kind of assay: Inhibition of JAK3 (unknown origin) preincubated for 60 mins followed by reagent A addition and measured after 60 mins in presence of ATP by using microplate reader method.

Assay [7] deals with T3, Protein deacetylase HDAC6 (Homo sapiens, UniProt Q9UBN7).
T3 sequence (Q9UBN7 whole entry): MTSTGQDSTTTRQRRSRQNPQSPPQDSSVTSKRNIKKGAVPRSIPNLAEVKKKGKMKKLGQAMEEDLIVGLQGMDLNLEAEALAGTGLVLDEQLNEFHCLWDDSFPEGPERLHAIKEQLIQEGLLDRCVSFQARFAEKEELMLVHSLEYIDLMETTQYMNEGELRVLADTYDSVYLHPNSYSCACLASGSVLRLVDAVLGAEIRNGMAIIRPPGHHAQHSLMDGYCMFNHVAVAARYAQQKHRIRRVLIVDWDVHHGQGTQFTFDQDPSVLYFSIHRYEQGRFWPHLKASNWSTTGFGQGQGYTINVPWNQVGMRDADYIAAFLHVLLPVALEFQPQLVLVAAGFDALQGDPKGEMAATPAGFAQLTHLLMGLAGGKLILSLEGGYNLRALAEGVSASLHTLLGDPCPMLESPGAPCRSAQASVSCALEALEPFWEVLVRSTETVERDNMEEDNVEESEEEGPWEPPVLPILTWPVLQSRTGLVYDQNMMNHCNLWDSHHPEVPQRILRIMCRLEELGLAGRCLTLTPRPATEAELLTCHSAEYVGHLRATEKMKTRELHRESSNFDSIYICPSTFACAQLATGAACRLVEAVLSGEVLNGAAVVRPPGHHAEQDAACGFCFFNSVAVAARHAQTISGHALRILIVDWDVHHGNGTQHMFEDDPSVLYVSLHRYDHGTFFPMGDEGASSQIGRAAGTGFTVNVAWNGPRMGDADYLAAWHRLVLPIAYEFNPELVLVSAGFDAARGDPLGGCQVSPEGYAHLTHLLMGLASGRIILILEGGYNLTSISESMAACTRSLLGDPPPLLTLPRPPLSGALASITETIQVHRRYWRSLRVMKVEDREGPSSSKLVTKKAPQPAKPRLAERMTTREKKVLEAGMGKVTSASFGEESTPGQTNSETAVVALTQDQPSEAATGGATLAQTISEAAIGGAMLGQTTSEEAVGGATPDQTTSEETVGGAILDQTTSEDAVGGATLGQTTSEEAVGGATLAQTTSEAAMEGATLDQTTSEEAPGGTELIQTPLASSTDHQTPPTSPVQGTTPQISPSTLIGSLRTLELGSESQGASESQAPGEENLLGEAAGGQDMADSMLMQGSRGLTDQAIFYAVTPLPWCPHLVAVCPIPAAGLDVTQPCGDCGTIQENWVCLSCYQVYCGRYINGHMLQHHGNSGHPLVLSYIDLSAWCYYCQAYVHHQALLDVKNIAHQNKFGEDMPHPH
Nature of the assay: Inhibition of HDAC6 (unknown origin) incubated for 60 mins by microplate reader analysis.

For assay [8], the system named is MDA-MB-231. Kind of assay: Induction of apoptosis in human MDA-MB-231 cells assessed as early apoptotic cells at 10 uM measured after 48 hrs by annexin V-FITC/propidium iodide staining based flow cytometry (reference value: 3.09%). It is filed as functional. In general terms: In flow cytometry, cells or beads pass a laser one at a time.
In assay [9] the test system is 4T1. Nature of the assay: Induction of apoptosis in mouse 4T1 cells assessed as viable cells at 10 uM measured after 48 hrs by annexin V-FITC/propidium iodide staining based flow cytometry (reference value: 89.5%). It is filed as functional.
Assay [10] relates to 4T1. Nature of the assay: Induction of apoptosis in mouse 4T1 cells assessed as necrotic cells at 10 uM measured after 48 hrs by annexin V-FITC/propidium iodide staining based flow cytometry (reference value: 4.35%). It counts as functional.
The test system of assay [11] is MDA-MB-231. It counts as functional, Mus musculus. The conditions noted are these: dose 100 mg/kg; time 14 day.
Assay [12] concerns 4T1. Nature of the assay: Induction of apoptosis in mouse 4T1 cells assessed as early apoptotic cells at 10 uM measured after 48 hrs by annexin V-FITC/propidium iodide staining based flow cytometry (reference value: 1.12%). It is filed as functional.
Assay [13] deals with MDA-MB-231. Kind of assay: Induction of apoptosis in human MDA-MB-231 cells assessed as necrotic cells at 10 uM measured after 48 hrs by annexin V-FITC/propidium iodide staining based flow cytometry (reference value: 5.38%). It is filed as functional.
Assay [14] concerns the target T4, Protein deacetylase HDAC6 (Homo sapiens) (UniProt Q9UBN7).
T4 sequence (whole entry): T3 sequence (Q9UBN7 whole entry)
Kind of assay: Inhibition of HDAC6 (unknown origin) at 10 uM incubated for 60 min by microplate reader analysis relative to control.

Assay [15] relates to 4T1. Kind of assay: Induction of apoptosis in mouse 4T1 cells assessed as late apoptotic cells at 10 uM measured after 48 hrs by annexin V-FITC/propidium iodide staining based flow cytometry (reference value: 4.99%). It is filed as functional.
Assay [16] addresses T4, Protein deacetylase HDAC6 (Homo sapiens). Kind of assay: Inhibition of HDAC6 (unknown origin) at 10 nM incubated for 60 mins by microplate reader analysis relative to control.
Assay [17] has as its system 4T1. Kind of assay: Induction of apoptosis in mouse 4T1 cells assessed as late apoptotic cells at 5 uM measured after 48 hrs in presence of ruxolitinib by annexin V-FITC/propidium iodide staining based flow cytometry (reference value: 4.99%). It is filed as functional.
Assay [18] relates to 4T1. Nature of the assay: Induction of apoptosis in mouse 4T1 cells assessed as necrotic cells at 5 uM measured after 48 hrs in presence of ruxolitinib by annexin V-FITC/propidium iodide staining based flow cytometry (reference value: 4.35%). It is filed as functional.
The test system of assay [19] is 4T1. Kind of assay: Induction of apoptosis in mouse 4T1 cells assessed as rly apoptotic cells at 5 uM measured after 48 hrs in presence of ruxolitinib by annexin V-FITC/propidium iodide staining based flow cytometry (reference value: 1.12%). It counts as functional.
Assay [20] deals with T1, Tyrosine-protein kinase JAK2. Nature of the assay: Inhibition of JAK2 (unknown origin) assessed as inhibition rate at 10 uM incubated for 60 mins by microplate reader analysis relative to control.
Assay [21] relates to MDA-MB-231. Nature of the assay: Induction of apoptosis in human MDA-MB-231 cells assessed as viable cells at 2.5 uM measured after 48 hrs by annexin V-FITC/propidium iodide staining based flow cytometry (reference value: 85.7%). It counts as functional.
The subject of assay [22] is MDA-MB-231. Kind of assay: Induction of apoptosis in human MDA-MB-231 cells assessed as viable cells at 2.5 uM measured after 48 hrs in presence of ruxolitinib by annexin V-FITC/propidium iodide staining based flow cytometry (reference value: 85.7%). It is filed as functional.
Assay [23] concerns 4T1. Nature of the assay: Induction of apoptosis in mouse 4T1 cells assessed as viable cells at 5 uM measured after 48 hrs in presence of ruxolitinib by annexin V-FITC/propidium iodide staining based flow cytometry (reference value: 89.5%). It is filed as functional.

The results in this text go back to ChEMBL document CHEMBL5038570, “Discovery of Novel Pyrrolo[2,3-d]pyrimidine-based Derivatives as Potent JAK/HDAC Dual Inhibitors for the Treatment of Refractory Solid Tumors” (J Med Chem, 2022).

Activity calls are given as the source filed them. The rule behind the calls is not given here.

Histone deacetylase 1, sequence (Q13547 whole entry): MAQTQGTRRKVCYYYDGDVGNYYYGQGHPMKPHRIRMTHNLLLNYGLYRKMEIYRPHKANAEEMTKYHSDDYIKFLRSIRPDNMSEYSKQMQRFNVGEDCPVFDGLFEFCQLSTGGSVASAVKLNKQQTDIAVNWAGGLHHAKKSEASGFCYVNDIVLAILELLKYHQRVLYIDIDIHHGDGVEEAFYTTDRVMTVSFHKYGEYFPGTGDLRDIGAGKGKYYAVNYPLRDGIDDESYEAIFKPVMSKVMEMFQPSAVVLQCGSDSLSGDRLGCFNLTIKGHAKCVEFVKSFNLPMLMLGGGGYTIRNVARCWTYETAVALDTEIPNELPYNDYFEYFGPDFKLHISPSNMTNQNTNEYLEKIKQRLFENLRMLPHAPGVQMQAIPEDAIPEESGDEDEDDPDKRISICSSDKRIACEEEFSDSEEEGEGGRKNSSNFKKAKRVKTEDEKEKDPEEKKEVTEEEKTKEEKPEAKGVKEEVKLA
Tyrosine-protein kinase JAK1, sequence (P23458 whole entry): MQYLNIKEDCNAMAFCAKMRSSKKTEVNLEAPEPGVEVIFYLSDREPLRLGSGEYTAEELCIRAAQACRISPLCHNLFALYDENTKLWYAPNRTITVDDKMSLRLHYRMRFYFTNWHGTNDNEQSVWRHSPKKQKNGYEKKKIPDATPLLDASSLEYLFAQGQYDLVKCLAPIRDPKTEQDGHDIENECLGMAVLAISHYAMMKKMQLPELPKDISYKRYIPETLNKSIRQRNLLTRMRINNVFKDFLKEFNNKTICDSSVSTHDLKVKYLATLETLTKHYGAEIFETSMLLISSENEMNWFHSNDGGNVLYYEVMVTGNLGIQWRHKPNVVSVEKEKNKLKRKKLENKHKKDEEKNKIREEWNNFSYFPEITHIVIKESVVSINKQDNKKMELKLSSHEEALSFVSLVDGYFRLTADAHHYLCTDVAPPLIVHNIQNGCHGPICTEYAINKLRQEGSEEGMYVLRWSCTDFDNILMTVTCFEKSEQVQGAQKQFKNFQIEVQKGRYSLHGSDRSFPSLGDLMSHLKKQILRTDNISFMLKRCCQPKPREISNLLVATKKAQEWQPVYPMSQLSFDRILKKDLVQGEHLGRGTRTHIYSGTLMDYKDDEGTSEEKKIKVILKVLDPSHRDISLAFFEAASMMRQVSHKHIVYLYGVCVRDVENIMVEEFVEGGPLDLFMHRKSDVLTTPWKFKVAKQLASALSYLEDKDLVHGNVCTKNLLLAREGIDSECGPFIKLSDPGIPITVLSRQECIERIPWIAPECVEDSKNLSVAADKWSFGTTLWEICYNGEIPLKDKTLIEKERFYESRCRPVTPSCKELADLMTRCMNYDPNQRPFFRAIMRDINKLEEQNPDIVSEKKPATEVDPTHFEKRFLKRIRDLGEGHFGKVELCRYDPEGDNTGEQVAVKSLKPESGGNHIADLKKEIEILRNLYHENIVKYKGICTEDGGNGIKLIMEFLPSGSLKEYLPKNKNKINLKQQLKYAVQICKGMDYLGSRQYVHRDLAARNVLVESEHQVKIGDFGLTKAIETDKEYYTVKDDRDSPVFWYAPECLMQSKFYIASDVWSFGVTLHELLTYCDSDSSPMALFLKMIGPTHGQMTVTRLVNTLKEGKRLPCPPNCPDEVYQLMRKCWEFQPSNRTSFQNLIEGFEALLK

What is called IC50 is the midpoint of a concentration-inhibition curve. `O=C(CCCCCCn1cc(Nc2ncc3ccn(Cc4cccc(F)c4)c3n2)cn1)NO`: the half-inhibitory concentration (IC50) in [1] was 19.9 nM; at Histone deacetylase 1, 92.1 nM; in the assay on 4T1 [2], 3.72 µM; with MDA-MB-468, 2450 nM; in [3] it was 21.7 nM; in the assay on BT-549, 3.02 µM. Further, the IC50 in the assay on CAL-51 worked out at 1280 nM; in the assay with MDA-MB-231 [4], 3.94 µM; in assay [5] it was 15.7 nM; in assay [6], 16.1 nM; in [7], 14.7 nM.
As a reminder, the inhibition is the relative decrease from the control value, in per cent. In the case of `N#CC[C@H](C1CCCC1)n1cc(-c2ncnc3[nH]ccc23)cn1` [RUXOLITINIB], the Activity is 6.09% in the assay with MDA-MB-231 [8]; 89% with 4T1 [9]; 4.98% in the assay with 4T1 [10]; 2.04% in the assay with 4T1 [12]; 6.09% with MDA-MB-231 [13]; 4% in the assay with 4T1 [15]. In addition, in the assay with MDA-MB-231 [11], the TGI was determined as 12%. Moreover, the inhibition entry in assay [14] is “inactive”.
For `O=C(CCCCCCn1cc(Nc2ncc3ccn(-c4ccccc4)c3n2)cn1)NO`, the IC50 amounted to 19.6 nM in assay [1]; 52.1 nM on Histone deacetylase 1; 23.5 nM in assay [3]; 16.8 nM in assay [5]; 81.2 nM in [6]; 13.1 nM in assay [7].
For `O=C(CCCCCn1cc(Nc2ncc3ccn(Cc4cccc(F)c4)c3n2)cn1)NO`, the IC50 was found to be 8.7 nM in assay [1]; 173 nM on Histone deacetylase 1; 4.1 nM in [5]; 12.6 nM in assay [6]; 13.7 nM in assay [7].
In the case of `COc1ccc(Cn2ccc3cnc(Nc4cnn(CCCCCCC(=O)NO)c4)nc32)cc1`, the inhibition in [16] worked out at 40%. For the same compound, the 50% inhibitory concentration (IC50) in assay [5] was greater than 100 nM.
With `O=C(CCCCCCC(=O)Nc1ccccc1)NO` [VORINOSTAT], the Activity was found to be 4.98% with 4T1 [17]; 1.23% with 4T1 [18]; 28.6% with 4T1 [19]; 57.3% in the assay on MDA-MB-231 [21]; 25.8% with MDA-MB-231 [22]; 65.2% in the assay with 4T1 [23]. Moreover, the inhibition result in assay [20] was “inactive”.
Take `O=C(CCCCCn1cc(Nc2ncc3ccn(Cc4ccccc4F)c3n2)cn1)NO`: the IC50 in assay [1] came out at 32.3 nM; against Histone deacetylase 1, 145 nM; in assay [3], 13.3 nM; in assay [5] it was 10 nM; in [6], 18.4 nM; in assay [7] it was 15.3 nM.
Compound `Cc1ccc(Cn2ccc3cnc(Nc4cnn(CCCCCCC(=O)NO)c4)nc32)cc1` showed an inhibition in [16] of 38%. The IC50 in [5] is greater than 100 nM.
